This is an account of results in US11179391B2, “Compound with kinase inhibitory activity and preparation method and use thereof” (priority 2017, dated 2021).

Molecules are shown by their SMILES.

Data set [1] is described as follows: Pharmacokinetic study in rats. It counts as in vivo, Sprague-Dawley rats. The conditions noted are these: for F / Cmax / Tmax / clearance / half-life / AUC(0-t): male Sprague-Dawley rats; for F: iv 2 mg/kg and oral 5 mg/kg; for clearance in rat plasma (in words) / half-life in rat plasma (in words) / level of exposure at 24 h in rat plasma (in words): at the dose of 10 mg/kg; for Cmax / Tmax / clearance / half-life / AUC(0-t): rat, plasma, study dosed iv 2 mg/kg and oral 5 mg/kg, route of this parameter not given; for AUC(0-t): read-out: AUC0-24 h. On the procedure:
Healthy adult Sprague-Dawley rats, male, 7-10 weeks old, weighing 240-270 g, provided by Beijing Vital River Laboratory Animal Technology Co., Ltd., with an animal certificate number of 1140070278736.
Test compounds of the invention: example 17, 33, 40, and 57.
Intravenous administration solvent system of compounds: 10% (V/V) NMP and 90% (20% (V/V)) SBE-β-CD in 16.667 mM PBS with a concentration of 1.0 mg/mL.
Oral administration solvent system of compounds: pure water system containing 0.1% hydroxyethyl cellulose and 0.5% Tween-80, with a concentration of 1 mg/mL.
Intravenous administration: 3 male Sprague-Dawley rats of each test compound were injected intravenously after fasting overnight, with a dose of 2 mg/kg, and the dosing volume was 2 mL/kg. […]
Before the administration, and after administration of 0.0833 (iv), 0.25, 0.5, 1, 2, 4, 8, 12, and 24 h, the jugular vein puncture (approximately 0.15 mL per time point) of each animal was performed by collecting blood from polypropylene tubes. All blood samples were transferred to pre-cooled EDTA-K2 test tubes or pre-cooled plastic microcentrifuge tubes containing 3 μL of 0.5 M EDTA-K2 as anticoagulant and placed on wet ice until centrifugation. Each collected blood was centrifuged at 4° C. for 15 minutes, and plasma was collected. All plasma would be stored in a freezer at about −80° C. until LCMS/MS detection.

The next data set has as its target CDK7/CyclinH/MAT1 (Homo sapiens, UniProt P50613). The data set can be described thus: Determination of CDK activity (Caliper mobility shift, FAM-P8 peptide): CDK7. It counts as biochemical. The conditions noted are these: CDK7/CyclinH/MAT1; read-out: CDK7 enzymatic inhibitory activity (IC50). The method, boiled down: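 His-CDK7/GST-MAT1/cyclin H preincubated with compound (10-point series) 10 min at room temperature, then reacted with FAM-P8 peptide plus ATP at 28 °C for a set time before stopping. Peptide conversion read by Caliper mobility shift; converted to % inhibition vs controls and IC50 fitted.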

Another data set addresses CDK2/CycA2 (Homo sapiens, UniProt P24941). The data set can be described thus: Determination of CDK activity (Caliper mobility shift, FAM-P8 peptide): CDK2. The note with it: CDK2/CycA2; read-out: CDK2 enzymatic inhibitory activity (IC50). It is filed as biochemical.
The next data set addresses CDK6/cycD3 (Homo sapiens, UniProt Q00534). The experiment in a line: Determination of CDK activity (Caliper mobility shift, FAM-P8 peptide): CDK6. It counts as biochemical. The conditions noted are these: CDK6/cycD3; read-out: CDK6 enzymatic inhibitory activity (IC50). In short, it runs like this: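 GST-CDK6(1-326)/cycD3 with FAM-P8 peptide and ATP, after 10 min room-temperature enzyme–compound preincubation; reaction at 28 °C, then EDTA stop. Substrate conversion read by Caliper mobility shift; inhibition from no-compound and no-enzyme controls, IC50 fitted over 10-point dilution in DMSO.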

CDK6/cycD3, sequence (Q00534 whole entry): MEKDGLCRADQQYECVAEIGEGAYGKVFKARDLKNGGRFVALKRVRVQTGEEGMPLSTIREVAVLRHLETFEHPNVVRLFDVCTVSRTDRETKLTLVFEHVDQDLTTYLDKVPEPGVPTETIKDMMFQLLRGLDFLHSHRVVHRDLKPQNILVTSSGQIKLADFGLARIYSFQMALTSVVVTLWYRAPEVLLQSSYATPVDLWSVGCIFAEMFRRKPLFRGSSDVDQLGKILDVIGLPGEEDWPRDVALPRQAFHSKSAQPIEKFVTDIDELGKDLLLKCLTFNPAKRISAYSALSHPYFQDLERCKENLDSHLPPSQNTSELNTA
CDK6/cycD3, sequence (P30281 whole entry partner): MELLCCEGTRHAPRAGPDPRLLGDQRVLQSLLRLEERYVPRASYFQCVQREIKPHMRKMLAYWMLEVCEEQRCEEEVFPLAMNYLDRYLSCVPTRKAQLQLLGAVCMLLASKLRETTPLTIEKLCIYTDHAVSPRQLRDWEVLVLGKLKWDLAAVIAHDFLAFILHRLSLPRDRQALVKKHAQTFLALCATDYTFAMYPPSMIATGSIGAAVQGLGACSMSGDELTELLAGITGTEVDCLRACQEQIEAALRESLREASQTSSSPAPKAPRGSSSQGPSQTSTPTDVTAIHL
CDK7/CyclinH/MAT1, sequence (P50613 whole entry): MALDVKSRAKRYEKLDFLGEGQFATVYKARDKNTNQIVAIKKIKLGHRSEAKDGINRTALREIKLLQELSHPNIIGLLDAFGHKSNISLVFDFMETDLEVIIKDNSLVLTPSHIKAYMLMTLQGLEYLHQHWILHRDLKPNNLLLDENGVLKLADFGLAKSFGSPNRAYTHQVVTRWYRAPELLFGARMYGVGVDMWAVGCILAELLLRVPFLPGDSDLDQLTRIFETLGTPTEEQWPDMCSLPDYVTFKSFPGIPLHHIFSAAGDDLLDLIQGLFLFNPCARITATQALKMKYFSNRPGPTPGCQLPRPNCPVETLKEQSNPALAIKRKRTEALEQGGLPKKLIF
CDK7/CyclinH/MAT1, sequence (P51946 whole entry partner): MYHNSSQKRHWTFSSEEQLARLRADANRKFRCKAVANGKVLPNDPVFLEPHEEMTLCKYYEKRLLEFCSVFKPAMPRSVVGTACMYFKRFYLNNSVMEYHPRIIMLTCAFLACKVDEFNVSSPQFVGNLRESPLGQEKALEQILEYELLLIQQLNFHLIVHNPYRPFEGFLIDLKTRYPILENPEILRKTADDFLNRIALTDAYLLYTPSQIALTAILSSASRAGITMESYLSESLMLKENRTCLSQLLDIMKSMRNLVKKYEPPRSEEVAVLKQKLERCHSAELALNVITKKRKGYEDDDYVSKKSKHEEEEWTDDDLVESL
CDK7/CyclinH/MAT1, sequence (P51948 whole entry partner): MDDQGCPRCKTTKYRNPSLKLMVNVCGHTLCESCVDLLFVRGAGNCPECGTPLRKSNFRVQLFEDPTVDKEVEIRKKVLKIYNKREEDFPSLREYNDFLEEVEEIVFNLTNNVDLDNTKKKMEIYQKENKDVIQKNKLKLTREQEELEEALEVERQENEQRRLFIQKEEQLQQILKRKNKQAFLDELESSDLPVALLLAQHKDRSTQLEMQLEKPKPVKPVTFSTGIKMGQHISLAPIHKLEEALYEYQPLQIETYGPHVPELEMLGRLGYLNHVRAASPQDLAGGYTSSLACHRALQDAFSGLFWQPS

In the case of `CCN1CCC(C(C)c2ccc(Nc3ncc(F)c(-c4cc(F)c5nc(C)n(C(C)C)c5c4)n3)nc2)CC1` (single isomer, unassigned) [Example 17, (R or S)—N-(5-(1-(1-ethylpiperidin-4-yl)ethyl)pyridin-2-yl)-5-fluoro-4-(4-fluoro-1-isopropyl-2-methyl-1H-benzo[d]imidazol-6-yl) pyrimidin-2-amine], in data set [1], the F is recorded as 66.9%, the “clearance in rat plasma (in words)” value is recorded as “lower clearance”, the “half-life in rat plasma (in words)” value is “longer half-life” and the “level of exposure at 24 h in rat plasma (in words)” value is reported as “high level of exposure”. In data set [1], the concentration peaked (Cmax) at 225 ng/mL; the Tmax (usually the time from dosing to the highest level) was 8 h; the clearance worked out at 14.1 mL/min/kg; the half-life (as a rule, the time in which the quantity being followed falls by half) was 563 min. Besides, the AUC(0-t) in data set [1] was determined as 3580 ng·h/mL. In addition, the IC50 (usually the concentration at which inhibition is half-maximal) at CDK7/CyclinH/MAT1 is 1 to 10 µM. Moreover, the IC50 on CDK2/CycA2 was less than 100 nM. For the same compound, the IC50 at CDK6/cycD3 was less than 100 nM.
Regarding `CCN1CCC(=Cc2ccc(Nc3ncc(F)c(-c4cc(F)c5nc(C)n(C(C)C)c5c4)n3)nc2)CC1` [Example 57, N-(5-((1-ethylpiperidin-4-ylidene)methyl)pyridin-2-yl)-5-fluoro-4-(4-fluoro-1-isopropyl-2-methyl-1H-benzo[d]imidazol-6-yl)pyrimidin-2-amine], in data set [1], the F was determined as 57.6%, the “clearance in rat plasma (in words)” value is given as “lower clearance”, the “half-life in rat plasma (in words)” value is on record as “longer half-life” and the “level of exposure at 24 h in rat plasma (in words)” value is “high level of exposure”. For the same compound, in data set [1], the Cmax – broadly, the highest concentration seen after dosing – came out at 205 ng/mL; the Tmax was 8 h; the clearance came out at 14.8 mL/min/kg; the half-life is 702 min. Further, in data set [1], the AUC(0-t) is 3080 ng·h/mL. Moreover, the IC50 on CDK7/CyclinH/MAT1 fell in the range of 1 to 10 µM. Further, the IC50 at CDK2/CycA2 was less than 100 nM. Further, on CDK6/cycD3, the IC50 was less than 100 nM.
